Test results published in patent US20240041042A1, “1-(PYRIDYL)-5-AZINYLPYRAZOLE DERIVATIVES, AND THEIR USE FOR CONTROL OF UNDESIRED PLANT GROWTH” (Bayer Aktiengesellschaft, priority 2020, published 2024).

What was measured:
Format in all cases: in vivo
Viola tricolor (VIOTR) [1] = assay: Post-emergence herbicidal action against VIOTR
In short: (§1)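 Greenhouse plants sprayed at the one-leaf stage, 2–3 weeks after sowing, with WP or EC formulations plus 0.5% additive at 600 l/ha water. Activity rated visually after about 3 weeks versus untreated controls (100% = dead, 0% = like control), at 320 g/ha or lower.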

[2] = tested on: Pharbitis purpurea (PHBPU); assay: Post-emergence herbicidal action against PHBPU
In short: as §1

Viola tricolor (VIOTR) [3] = assay: Pre-emergence herbicidal action against VIOTR
In short: (§2)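 Pre-emergence soil-surface spray of compound, formulated as wettable powder or emulsion concentrate, in aqueous suspension or emulsion with 0.5% additive (600 l/ha; rate 320 g/ha or less). Activity rated visually after roughly 3 weeks in the greenhouse as a percentage of untreated controls, 0% meaning no difference.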

Setaria viridis (SETVI) [4] = assay: Post-emergence herbicidal action against SETVI
In short: as §1

[5] = tested on: Echinochloa crus-galli (ECHCG); assay: Post-emergence herbicidal action against ECHCG
In short: as §1

Avena fatua (AVEFA) = assay: Pre-emergence herbicidal action against AVEFA; conditions: visual scoring after about 3 weeks vs untreated controls
In short: as §2

[6] = tested on: Verconica persica (VERPE); assay: Pre-emergence herbicidal action against VERPE
In short: as §2

[7] = tested on: Verconica persica (VERPE); assay: Post-emergence herbicidal action against VERPE
In short: as §1

[8] = tested on: Echinochloa crus-galli (ECHCG); assay: Pre-emergence herbicidal action against ECHCG
In short: as §2

Setaria viridis (SETVI) [9] = assay: Pre-emergence herbicidal action against SETVI
In short: as §2

## O=C(O)COc1nn(-c2ncccc2F)c(-c2cncc(F)c2)c1C1CC1 [Example I-175]
Viola tricolor (VIOTR) [1]; 80 g/ha
  Post-emergence action against VIOTR in %: 80%
Viola tricolor (VIOTR) [1]; 320 g/ha
  Post-emergence action against VIOTR in %: 80%
[2]; dosage 80 g/ha
  Post-emergence action against PHBPU in %: 80%
[2]; dosage 320 g/ha
  Post-emergence action against PHBPU in %: 90%
Viola tricolor (VIOTR) [3]; 320 g/ha, Viola tricolor
  Pre-emergence action against VIOTR in %: 100%
Viola tricolor (VIOTR) [3]; dosage 80 g/ha
  Pre-emergence action against VIOTR in %: 100%
Setaria viridis (SETVI) [4]; dosage 320 g/ha
  Post-emergence action against SETVI in %: 80%
[5]; dosage 80 g/ha
  Post-emergence action against ECHCG in %: 80%
[5]; dosage 320 g/ha
  Post-emergence action against ECHCG in %: 80%
Avena fatua (AVEFA); 320 g/ha
  Pre-emergence action against AVEFA in %: 90%
[6]; dosage 80 g/ha
  Pre-emergence action against VERPE in %: 100%
[6]; dosage 320 g/ha
  Pre-emergence action against VERPE in %: 100%
[7]; 320 g/ha, VERPE
  Post-emergence action against VERPE in %: 80%
[7]; dosage 80 g/ha
  Post-emergence action against VERPE in %: 80%
[8]; dosage 80 g/ha
  Pre-emergence action against ECHCG in %: 100%
[8]; dosage 320 g/ha
  Pre-emergence action against ECHCG in %: 100%
Setaria viridis (SETVI) [9]; dosage 80 g/ha
  Pre-emergence action against SETVI in %: 90%
Setaria viridis (SETVI) [9]; dosage 320 g/ha
  Pre-emergence action against SETVI in %: 100%

## C[C@@H](Oc1nn(-c2ncccc2F)c(-c2ccc(F)nc2)c1I)C(=O)O [Example I-343]
Viola tricolor (VIOTR) [1]; 80 g/ha
  Post-emergence action against VIOTR in %: 80%
Viola tricolor (VIOTR) [1]; 320 g/ha
  Post-emergence action against VIOTR in %: 80%
[2]; dosage 320 g/ha
  Post-emergence action against PHBPU in %: 90%
Viola tricolor (VIOTR) [3]; 320 g/ha, Viola tricolor
  Pre-emergence action against VIOTR in %: 100%
Viola tricolor (VIOTR) [3]; dosage 80 g/ha
  Pre-emergence action against VIOTR in %: 100%
Setaria viridis (SETVI) [4]; dosage 80 g/ha
  Post-emergence action against SETVI in %: 90%
Setaria viridis (SETVI) [4]; dosage 320 g/ha
  Post-emergence action against SETVI in %: 90%
[5]; dosage 80 g/ha
  Post-emergence action against ECHCG in %: 90%
[5]; dosage 320 g/ha
  Post-emergence action against ECHCG in %: 90%
Avena fatua (AVEFA); 80 g/ha
  Pre-emergence action against AVEFA in %: 80%
Avena fatua (AVEFA); 320 g/ha
  Pre-emergence action against AVEFA in %: 90%
[6]; dosage 320 g/ha
  Pre-emergence action against VERPE in %: 100%
[7]; 320 g/ha, VERPE
  Post-emergence action against VERPE in %: 80%
[7]; dosage 80 g/ha
  Post-emergence action against VERPE in %: 80%
[8]; dosage 320 g/ha
  Pre-emergence action against ECHCG in %: 100%
Setaria viridis (SETVI) [9]; dosage 80 g/ha
  Pre-emergence action against SETVI in %: 100%
Setaria viridis (SETVI) [9]; dosage 320 g/ha
  Pre-emergence action against SETVI in %: 100%

## CCOC(=O)COc1nn(-c2nc(F)ccc2F)c(-c2cncc(F)c2)c1C1CC1 [Example I-149]
Viola tricolor (VIOTR) [1]; 80 g/ha
  Post-emergence action against VIOTR in %: 80%
Viola tricolor (VIOTR) [1]; 320 g/ha
  Post-emergence action against VIOTR in %: 80%
[2]; dosage 80 g/ha
  Post-emergence action against PHBPU in %: 80%
[2]; dosage 320 g/ha
  Post-emergence action against PHBPU in %: 80%
Viola tricolor (VIOTR) [3]; 320 g/ha, Viola tricolor
  Pre-emergence action against VIOTR in %: 100%
Viola tricolor (VIOTR) [3]; dosage 80 g/ha
  Pre-emergence action against VIOTR in %: 100%
Setaria viridis (SETVI) [4]; dosage 80 g/ha
  Post-emergence action against SETVI in %: 80%
Setaria viridis (SETVI) [4]; dosage 320 g/ha
  Post-emergence action against SETVI in %: 80%
[5]; dosage 80 g/ha
  Post-emergence action against ECHCG in %: 80%
[5]; dosage 320 g/ha
  Post-emergence action against ECHCG in %: 80%
Avena fatua (AVEFA); 80 g/ha
  Pre-emergence action against AVEFA in %: 80%
Avena fatua (AVEFA); 320 g/ha
  Pre-emergence action against AVEFA in %: 90%
[6]; dosage 320 g/ha
  Pre-emergence action against VERPE in %: 100%
[7]; 320 g/ha, VERPE
  Post-emergence action against VERPE in %: 80%
[8]; dosage 80 g/ha
  Pre-emergence action against ECHCG in %: 90%
[8]; dosage 320 g/ha
  Pre-emergence action against ECHCG in %: 100%
Setaria viridis (SETVI) [9]; dosage 80 g/ha
  Pre-emergence action against SETVI in %: 100%
Setaria viridis (SETVI) [9]; dosage 320 g/ha
  Pre-emergence action against SETVI in %: 100%

## COC(=O)[C@H](C)COC(=O)COc1nn(-c2ccccn2)c(-c2cncc(F)c2)c1Cl [Example I-192]
Viola tricolor (VIOTR) [1]; 320 g/ha
  Post-emergence action against VIOTR in %: 80%
[2]; dosage 80 g/ha
  Post-emergence action against PHBPU in %: 90%
[2]; dosage 320 g/ha
  Post-emergence action against PHBPU in %: 90%
Viola tricolor (VIOTR) [3]; 320 g/ha, Viola tricolor
  Pre-emergence action against VIOTR in %: 100%
Viola tricolor (VIOTR) [3]; dosage 80 g/ha
  Pre-emergence action against VIOTR in %: 80%
Setaria viridis (SETVI) [4]; dosage 80 g/ha
  Post-emergence action against SETVI in %: 80%
Setaria viridis (SETVI) [4]; dosage 320 g/ha
  Post-emergence action against SETVI in %: 80%
[5]; dosage 80 g/ha
  Post-emergence action against ECHCG in %: 90%
[5]; dosage 320 g/ha
  Post-emergence action against ECHCG in %: 90%
Avena fatua (AVEFA); 320 g/ha
  Pre-emergence action against AVEFA in %: 90%
[6]; dosage 320 g/ha
  Pre-emergence action against VERPE in %: 90%
[7]; 320 g/ha, VERPE
  Post-emergence action against VERPE in %: 80%
[7]; dosage 80 g/ha
  Post-emergence action against VERPE in %: 80%
[8]; dosage 80 g/ha
  Pre-emergence action against ECHCG in %: 90%
[8]; dosage 320 g/ha
  Pre-emergence action against ECHCG in %: 100%
Setaria viridis (SETVI) [9]; dosage 80 g/ha
  Pre-emergence action against SETVI in %: 90%
Setaria viridis (SETVI) [9]; dosage 320 g/ha
  Pre-emergence action against SETVI in %: 100%

## COC(=O)[C@@H](C)Oc1nn(-c2ncccc2F)c(-c2ccc(F)nc2)c1C(F)(F)F [Example I-331]
Viola tricolor (VIOTR) [1]; 80 g/ha
  Post-emergence action against VIOTR in %: 80%
Viola tricolor (VIOTR) [1]; 320 g/ha
  Post-emergence action against VIOTR in %: 80%
[2]; dosage 320 g/ha
  Post-emergence action against PHBPU in %: 90%
Viola tricolor (VIOTR) [3]; 320 g/ha, Viola tricolor
  Pre-emergence action against VIOTR in %: 100%
Viola tricolor (VIOTR) [3]; dosage 80 g/ha
  Pre-emergence action against VIOTR in %: 100%
Setaria viridis (SETVI) [4]; dosage 80 g/ha
  Post-emergence action against SETVI in %: 90%
Setaria viridis (SETVI) [4]; dosage 320 g/ha
  Post-emergence action against SETVI in %: 90%
[5]; dosage 80 g/ha
  Post-emergence action against ECHCG in %: 90%
[5]; dosage 320 g/ha
  Post-emergence action against ECHCG in %: 90%
Avena fatua (AVEFA); 80 g/ha
  Pre-emergence action against AVEFA in %: 100%
Avena fatua (AVEFA); 320 g/ha
  Pre-emergence action against AVEFA in %: 100%
[6]; dosage 80 g/ha
  Pre-emergence action against VERPE in %: 100%
[6]; dosage 320 g/ha
  Pre-emergence action against VERPE in %: 100%
[7]; 320 g/ha, VERPE
  Post-emergence action against VERPE in %: 90%
[7]; dosage 80 g/ha
  Post-emergence action against VERPE in %: 90%
[8]; dosage 80 g/ha
  Pre-emergence action against ECHCG in %: 80%
[8]; dosage 320 g/ha
  Pre-emergence action against ECHCG in %: 100%
Setaria viridis (SETVI) [9]; dosage 320 g/ha
  Pre-emergence action against SETVI in %: 90%
